# Data from patent US9750698B2, “Controlled release compositions of agents that reduce circulating levels of platelets and methods therefor” (BioVascular, Inc., priority 2008, dated 2017).
# Where two headings read alike, the source gives them in different places.
# Key:
# [1] = Repeat-dose dose-escalation study of controlled release anagrelide: pharmacokinetics; format: in vivo, human; conditions: for half-life / AUC0-inf / AUC / Cmax / Tmax / AUC0-t: human, plasma, oral; for AUC0-inf / AUC / Cmax / AUC0-t: dose-normalized to 0.2 mg; for AUC0-inf: read-out: AUC0-inf; for AUC: read-out: AUC0-τ; for Cmax: read-out: Cmax; for Tmax: median; for AUC0-t: read-out: AUC0-t
# Protocol: A placebo-controlled, double-blind repeat-dose, dose-escalation, sequential cohort study was conducted to evaluate the pharmacokinetics and pharmacodynamics of a controlled release composition of anagrelide as described herein in healthy subjects. An objective of the study was to explore the dose-response relationship for effects on platelet counts of a low dose range of a composition of anagrelide as described herein in healthy subjects. Other objectives of the study included determining the time course of effect and recovery of a range of doses of the composition including anagrelide on platelet count, determining the effects of a range of doses of the anagrelide compositions on platelet aggregation (collagen and ADP as agonists), determining the single and repeat dose pharmacokinetics of the anagrelide composition, and exploring the safety and tolerability of the compositions given as single doses and repeatedly for up to 21 days.
# Eligible subjects were treated as follows: • Subjects were admitted to the unit on day 1 in the morning after an overnight fast and remain in the unit until 4 hours after morning dosing on day 5. • Subjects received a single dose of controlled release composition including anagrelide (or matching placebo) on day 1 in the morning. • Subjects commenced repeat dosing twice a day with the controlled release anagrelide composition on the morning of day 3 and remained in the unit until 4 hours after morning dose on day 5. • Subjects continued repeat twice a day dosing with the controlled release anagrelide composition as outpatients. Dosing continued until the morning of day 23. • All morning doses were taken after an overnight fast of at least 8 hour. • All evening doses were taken at least 2 hour after food consumption. No food was to be consumed for at least 1 hour after any dose (4 hours for the morning doses on day 1 and day 23). • On day 6-day 21, blood was taken pre-dosing of the controlled release anagrelide composition for full blood count (FBC) and platelet count (every day), trough PK (day 7, day 10, day 13, day 16 and day 19) and clinical chemistry (day 13). • Subjects were readmitted to the unit on the morning of day 22 and remained there until day 25 so that the PK of the final dose of the controlled release composition containing anagrelide on day 23 could be followed for 48 hours. • Subjects returned to the clinic daily from day 26 to day 31 for FBC and platelet counts. • Subjects returned for a follow up visit 14-16 days after the last dose of the controlled release composition containing anagrelide. Study Population:
# A controlled release composition of anagrelide as described above in Table 4 of Example 1 (composition 2 fast release with seal coat) was used in unit doses of 100 μg and 300 μg, administered orally.
# In this protocol, 4 cohorts of 200 μg, 300 μg, 400 μg and 600 μg doses of the controlled release composition including anagrelide administered twice daily were studied.
# Platelet count, collagen-induced platelet aggregation, ADP induced platelet aggregation, template bleeding time, AUC0-t, AUC0-∞, Cmax, Cmin, t1/2, λZ and tmax were determined.
# The starting dose of 200 μg (as a single dose on day 1 and then twice a day for 21 days) was chosen as a dose unlikely to cause any clinically significant reduction in platelet counts in healthy subjects. This starting dose was chosen because identification of the lowest dose of the controlled release composition containing anagrelide producing any effect on platelet counts was of interest. In each subsequent cohort the dose was increased by […] twice a day with the objective of identifying the dose range that lowers platelet counts by 30-50%. With daily monitoring of platelet counts, this escalation was determined to allow identification of the effective dose range of the controlled release composition of anagrelide without placing the subjects at significant clinical risk.
# [2] = test system: cultured megakaryocytes; assay: In vitro studies of cultured megakaryocytes (TPO inhibition effects, megakaryocytopoiesis); format: cell-based; conditions: at 310.55 g/mol
# [3] = 38 volunteers, single 1 mg dose of immediate release anagrelide (Agrylin); cited from earlier work
# [4] = patients with ET or other myeloproliferative diseases; cited from earlier work
# [5] = test system: cAMP PDE; conditions: sonicated human platelets; read-out: IC50 for inhibition of cAMP PDE activity; cited from earlier work
# [6] = test system: cGMP PDE; conditions: sonicated human platelets; read-out: IC50 for inhibition of cGMP PDE activity; cited from earlier work
# [7] = test system: cultured megakaryocytes; conditions: cultured megakaryocytes; cited from earlier work
# [8] = cited from earlier work
# [9] = target: CYP1A2 (Homo sapiens, UniProt P05177); conditions: cited from earlier work
# [10] = cited from earlier work; remark: listed apart in the source
# [11] = test system: circulating platelets; conditions: patients with essential thrombocythemia, immediate release form 3 mg/day, after approximately 10 days; cited from earlier work
# [12] = 0.2 mg, cohort 1 (0.2 mg), day 1
# [13] = 0.2 mg, cohort 1 (0.2 mg), day 23
# [14] = 0.3 mg, cohort 4 (0.3 mg), day 1
# [15] = 0.3 mg, cohort 4 (0.3 mg), day 23
# [16] = 0.4 mg, cohort 2 (0.4 mg), day 1
# [17] = 0.4 mg, cohort 2 (0.4 mg), day 23
# [18] = 0.6 mg, cohort 3 (0.6 mg), day 1
# [19] = 14C labelled anagrelide in humans
# Sequence of CYP1A2 (P05177 whole entry): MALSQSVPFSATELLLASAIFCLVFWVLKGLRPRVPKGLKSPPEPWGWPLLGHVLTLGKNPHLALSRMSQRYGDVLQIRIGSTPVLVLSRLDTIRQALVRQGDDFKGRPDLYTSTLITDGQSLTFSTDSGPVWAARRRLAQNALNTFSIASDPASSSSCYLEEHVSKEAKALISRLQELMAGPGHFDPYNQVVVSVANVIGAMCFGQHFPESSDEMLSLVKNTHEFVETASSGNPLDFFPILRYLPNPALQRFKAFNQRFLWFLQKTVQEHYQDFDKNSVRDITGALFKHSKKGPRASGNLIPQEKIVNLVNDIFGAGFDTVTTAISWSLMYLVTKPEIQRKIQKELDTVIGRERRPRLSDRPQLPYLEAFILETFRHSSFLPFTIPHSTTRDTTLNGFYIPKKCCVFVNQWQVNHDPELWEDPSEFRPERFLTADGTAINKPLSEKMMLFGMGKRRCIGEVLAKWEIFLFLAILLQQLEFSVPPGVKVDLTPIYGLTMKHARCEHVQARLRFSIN
compound,measurement,setting,value
"O=C1CN2Cc3c(ccc(Cl)c3Cl)N=C2N1 [anagrelide, 6,7-dichloro-1,5-dihydroimidazo-[2,1-b]quinazolin-2(3H)-one]",Kel,"[1]; cohort 1 (0.2 mg), day 1",0.1908 h⁻¹
same,Kel,"[1]; cohort 1 (0.2 mg), day 23",0.0871 h⁻¹
same,Kel,"[1]; cohort 2 (0.4 mg), day 1",0.0426 h⁻¹
same,Kel,"[1]; cohort 2 (0.4 mg), day 23",0.0567 h⁻¹
same,Kel,"[1]; cohort 3 (0.6 mg), day 1",0.0490 h⁻¹
same,Kel,"[1]; cohort 4 (0.3 mg), day 1",0.1685 h⁻¹
same,Kel,"[1]; cohort 4 (0.3 mg), day 23",0.0321 h⁻¹
same,half-life,[1]; [12],22.9 h
same,half-life,[1]; [13],34.3 h
same,AUC0-inf,[1]; [12],2.45 ng·h/mL
same,AUC,[1]; [12],1.75 ng·h/mL
same,Cmax,[1]; [12],0.334 ng/mL
same,AUC0-inf,[1]; [13],3.25 ng·h/mL
same,AUC,[1]; [13],2 ng·h/mL
same,Cmax,[1]; [13],0.354 ng/mL
same,Tmax,[1]; [12],4 h
same,Tmax,[1]; [13],3 h
same,half-life,[1]; [14],14.3 h
same,half-life,[1]; [15],21.6 h
same,AUC0-inf,[1]; [14],2.24 ng·h/mL
same,AUC,[1]; [14],1.63 ng·h/mL
same,Cmax,[1]; [14],0.284 ng/mL
same,AUC0-inf,[1]; [15],2.1 ng·h/mL
same,AUC,[1]; [15],1.87 ng·h/mL
same,Cmax,[1]; [15],0.224 ng/mL
same,Tmax,[1]; [14],3.61 h
same,Tmax,[1]; [15],2 h
same,half-life,[1]; [16],56.1 h
same,half-life,[1]; [17],15.1 h
same,AUC0-inf,[1]; [16],3.48 ng·h/mL
same,AUC,[1]; [16],1.48 ng·h/mL
same,Cmax,[1]; [16],0.234 ng/mL
same,AUC0-inf,[1]; [17],3.28 ng·h/mL
same,AUC,[1]; [17],2.26 ng·h/mL
same,Cmax,[1]; [17],0.331 ng/mL
same,Tmax,[1]; [16],3.51 h
same,Tmax,[1]; [17],3.02 h
same,half-life,[1]; [18],19.5 h
same,AUC0-inf,[1]; [18],2.74 ng·h/mL
same,AUC,[1]; [18],1.96 ng·h/mL
same,Cmax,[1]; [18],0.304 ng/mL
same,Tmax,[1]; [18],4 h
same,AUC0-t,"[1]; cohort 1 (0.2 mg), day 1",1.72 ng·h/mL
same,AUC0-t,"[1]; cohort 2 (0.4 mg), day 1",1.66 ng·h/mL
same,AUC0-t,"[1]; cohort 3 (0.6 mg), day 1",2.26 ng·h/mL
same,AUC0-t,"[1]; cohort 4 (0.3 mg), day 1",1.82 ng·h/mL
same,Concentrations at which TPO inhibition effects are seen (molar equivalent),[2],0.032 to 0.16 µM
same,AUC0-inf ± RSD (%),[3],11.1 ± 37.6 ng·h/mL
same,Cmax ± RSD (%),[3],4.99 ± 74.4 ng/mL
same,Tmax ± RSD (%),[3],1.3 ± 53.8 h
same,Observed half-life,[4],about 1.7 h
same,Share of all drug-related products in the plasma,[4],less than 20%
same,IC50,[5],0.054 µM
same,IC50,[6],34 µM
same,Concentrations at which TPO inhibition effects are seen,[7],0.01 to 5 µg/mL
same,Eliminated via the kidneys,[8]; [19],> 70%
same,Excreted in the feces,[8]; [19],approximately 10%
same,Terminal half-life,[8]; commercially available instant release formulation,1.7 h
same,Drug-drug interactions with hydroxycarbamide or aspirin,[8]; in vivo,No drug-drug interactions were identified
same,Absorption in the gastrointestinal tract,"[8]; oral, marketed immediate release formulation",about 70%
same,Level of CYP1A2 inhibition relative to therapeutic exposure,[9],about 900 fold
same,Solubility in diethyl ether or n-heptane,[10],insoluble
same,"Solubility in dimethylsulfoxide and N,N-dimethylformamide",[10],sparingly soluble
same,Solubility in water,[10],very slightly soluble
same,Decrease in the number of circulating platelets,[11],30-50%
